Results taken from ChEMBL document CHEMBL5120862, “Novel non-covalent LSD1 inhibitors endowed with anticancer effects in leukemia and solid tumor cellular models” (Eur J Med Chem, 2022).
Blank lines part the entries; values can stand above or below the compound they belong to. Active and inactive are the calls of the source. No cut-off for these calls is given here.

Assays:
[1] = target: T1, N-lysine methyltransferase KMT5A (Homo sapiens) (UniProt Q9NQR1); assay: Inhibition of SETD8 (unknown origin) using [3H]SAM and HeLa nucleosomes as substrates at 100 uM incubated for 1 hr relative to control
T1 sequence (whole entry): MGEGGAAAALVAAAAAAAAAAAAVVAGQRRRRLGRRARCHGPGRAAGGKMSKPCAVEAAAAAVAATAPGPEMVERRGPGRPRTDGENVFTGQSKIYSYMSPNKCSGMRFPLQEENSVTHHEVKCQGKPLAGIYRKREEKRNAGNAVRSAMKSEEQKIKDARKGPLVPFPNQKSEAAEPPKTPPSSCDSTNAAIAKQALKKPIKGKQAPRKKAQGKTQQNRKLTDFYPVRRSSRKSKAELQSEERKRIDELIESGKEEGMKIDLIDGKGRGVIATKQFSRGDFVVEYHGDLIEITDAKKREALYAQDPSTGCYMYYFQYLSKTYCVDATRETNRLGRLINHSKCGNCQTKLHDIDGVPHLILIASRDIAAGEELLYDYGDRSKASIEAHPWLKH

[2] = target: T2, N-lysine methyltransferase KMT5A (Homo sapiens, UniProt Q9NQR1); assay: Inhibition of SETD8 (unknown origin) using [3H]SAM and HeLa nucleosomes as substrates incubated for 1 hr
T2 sequence (Q9NQR1 whole entry): T1 sequence (whole entry)

[3] = target: T3, LSD1/CoREST complex (Homo sapiens, UniProt O60341); assay: Inhibition of human LSD1/CoREST using histone H3 peptide as substrate by fluorescence polarization assay; assay type: protein-complex assay
[4] = system: SJRH30; assay: Antiproliferative activity against human Rh30 cells assessed as inhibition of cell growth incubated for 24 hrs; assay type: functional, cell-based; settings: SJRH30, 24 h
[5] = system: THP-1; assay: Antiproliferative activity against human THP-1 cells assessed as inhibition of cell growth incubated for 72 hrs by CellTiter-Glo luminescent cell viability assay; assay type: functional, cell-based; settings: THP-1, 72 h
[6] = target: Lysine-specific histone demethylase 1A (Homo sapiens) (UniProt O60341); assay: Inhibition of LSD1 in human MV4-11 cells assessed as increase in CD86 expression level incubated for 24 hrs by qRT-PCR analysis; assay type: cell-based; settings: dose 0.2-1 µM
[7] = system: RD; assay: Antiproliferative activity against human RD cells assessed as inhibition of cell growth incubated for 72 hrs; assay type: functional, cell-based
[8] = system: RD; assay: Antiproliferative activity against human RD cells assessed as inhibition of cell growth incubated for 24 hrs; assay type: functional, cell-based
[9] = target: Lysine-specific histone demethylase 1A (Homo sapiens) (UniProt O60341); assay: Inhibition of LSD1 in human RD cells assessed as increase in H3K4me2 level at 2 uM incubated for 48 hrs by Western blot analysis; assay type: cell-based
[10] = target: Lysine-specific histone demethylase 1A (Homo sapiens) (UniProt O60341); assay: Inhibition of LSD1 in human MV4-11 cells assessed as increase in H3K4me2 level at 0.2 to […] incubated for 24 hrs by Western blot analysis; assay type: cell-based; settings: dose 0.2-2.5 µM
[11] = Cytotoxicity against human derived mesenchymal stem cells assessed as residual cell viability at 1.25 uM measured after 72 hrs relative to control; assay type: toxicity, cell-based; settings: read-out: Activity
[12] = system: RD; assay: Induction of apoptosis in human RD cells assessed as increase in caspase 3/7 level at 4 uM incubated for 24 hrs; assay type: functional, cell-based
[13] = system: MV4-11; assay: Induction of cell cycle arrest in human MV4-11 cells assessed as accumulation of cells at G1 phase at 0.2 to […] incubated for 24 hrs; assay type: functional, cell-based; settings: dose 0.2-2.5 µM
[14] = system: RD; assay: Antiproliferative activity against human RD cells assessed as reduction in live cells at 4 uM incubated for 72 hrs by calceinAM/propidium iodide staining based fluorescence microscopy; assay type: functional, cell-based
[15] = system: THP-1; assay: Antiproliferative activity against human THP-1 cells assessed as inhibition of cell growth incubated for 24 hrs by CellTiter-Glo luminescent cell viability assay; assay type: functional, cell-based; settings: THP-1, 24 h
[16] = system: SJRH30; assay: Antiproliferative activity against human Rh30 cells assessed as reduction in live cells at 4 uM incubated for 24 hrs by calceinAM/propidium iodide staining based fluorescence microscopy; assay type: functional, cell-based
[17] = target: T3, LSD1/CoREST complex; assay: Binding affinity to human LSD1/CoREST assessed as dissociation constant by competitive fluorescence polarization assay; assay type: protein-complex assay
[18] = target: Lysine-specific histone demethylase 1A (Homo sapiens) (UniProt O60341); assay: Inhibition of LSD1 in human Rh30 cells assessed as increase in H3K4me2 level at 2 uM incubated for 48 hrs by Western blot analysis; assay type: cell-based
[19] = system: MV4-11; assay: Induction of apoptosis in human MV4-11 cells assessed as accumulation of cells at sub-G1 phase incubated for 24 hrs; assay type: functional, cell-based; settings: dose 0.2-25 µM, DDE = dose-dependent effect
[20] = target: T4, Histone-lysine N-methyltransferase EHMT2 (Homo sapiens, UniProt Q96KQ7); assay: Inhibition of G9a (unknown origin) assessed as reduction in substrate methylation using histone H3 and SAM as substrate measured after 15 to 60 mins by microfluidic capillary electrophoresis analysis
T4 sequence (Q96KQ7 whole entry): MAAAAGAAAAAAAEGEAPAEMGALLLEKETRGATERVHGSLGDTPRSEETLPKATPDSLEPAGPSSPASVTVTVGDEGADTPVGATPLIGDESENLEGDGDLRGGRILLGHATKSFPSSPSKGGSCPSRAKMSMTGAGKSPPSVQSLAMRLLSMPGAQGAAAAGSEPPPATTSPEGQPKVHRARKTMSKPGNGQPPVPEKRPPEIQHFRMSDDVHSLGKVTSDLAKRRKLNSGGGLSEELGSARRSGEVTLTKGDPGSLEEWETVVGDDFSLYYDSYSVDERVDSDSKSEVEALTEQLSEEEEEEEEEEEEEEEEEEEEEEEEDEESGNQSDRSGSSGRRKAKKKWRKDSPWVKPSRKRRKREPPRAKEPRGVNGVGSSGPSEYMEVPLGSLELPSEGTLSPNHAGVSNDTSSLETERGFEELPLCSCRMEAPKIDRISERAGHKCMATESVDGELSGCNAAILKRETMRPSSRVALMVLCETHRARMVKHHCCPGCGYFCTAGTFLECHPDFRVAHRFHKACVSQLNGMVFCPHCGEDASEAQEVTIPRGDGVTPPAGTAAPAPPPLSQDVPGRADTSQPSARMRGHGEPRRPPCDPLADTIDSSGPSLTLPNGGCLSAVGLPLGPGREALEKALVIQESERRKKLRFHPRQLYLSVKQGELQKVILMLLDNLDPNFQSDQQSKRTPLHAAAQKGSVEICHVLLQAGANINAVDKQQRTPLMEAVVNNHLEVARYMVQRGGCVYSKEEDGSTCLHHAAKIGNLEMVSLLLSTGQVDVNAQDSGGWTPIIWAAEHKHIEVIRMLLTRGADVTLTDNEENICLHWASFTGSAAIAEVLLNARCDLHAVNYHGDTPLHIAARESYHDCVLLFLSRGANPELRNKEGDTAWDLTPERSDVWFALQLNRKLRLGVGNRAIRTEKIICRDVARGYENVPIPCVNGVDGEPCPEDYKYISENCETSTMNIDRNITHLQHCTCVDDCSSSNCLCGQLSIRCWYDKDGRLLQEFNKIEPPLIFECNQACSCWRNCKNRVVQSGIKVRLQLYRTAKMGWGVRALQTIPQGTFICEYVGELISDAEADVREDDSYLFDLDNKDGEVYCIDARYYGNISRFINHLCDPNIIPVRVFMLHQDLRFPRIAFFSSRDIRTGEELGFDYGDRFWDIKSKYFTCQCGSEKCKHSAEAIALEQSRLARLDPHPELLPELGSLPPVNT

[21] = system: SJRH30; assay: Induction of apoptosis in human Rh30 cells assessed as increase in caspase 3/7 level at 4 uM incubated for 24 hrs; assay type: functional, cell-based
[22] = system: MDA-MB-231; assay: Antiproliferative activity against human MDA-MB-231 cells assessed as inhibition of cell growth measured after 72 hrs by MTT assay; assay type: functional, cell-based; settings: MDA-MB-231, 72 h
[23] = system: SJRH30; assay: Antiproliferative activity against human Rh30 cells assessed as inhibition of cell growth incubated for 72 hrs; assay type: functional, cell-based; settings: SJRH30, 72 h
[24] = system: THP-1; assay: Antiproliferative activity against human THP-1 cells assessed as inhibition of cell growth incubated for 144 hrs by CellTiter-Glo luminescent cell viability assay; assay type: functional, cell-based; settings: THP-1, 144 h
[25] = system: SJRH30; assay: Antiproliferative activity against human Rh30 cells assessed as inhibition of cell growth incubated for 144 hrs; assay type: functional, cell-based; settings: SJRH30, 144 h
[26] = system: MV4-11; assay: Antiproliferative activity against human MV4-11 cells assessed as inhibition of cell growth at […] incubated for 72 to 144 hrs by trypan blue staining based analysis; assay type: functional; settings: dose 2.5 µM, time 72-144 hrs
[27] = system: RD; assay: Antiproliferative activity against human RD cells assessed as inhibition of cell growth incubated for 144 hrs; assay type: functional, cell-based

- inhibition [1]: 91.6%
- IC50 [2]: 370 nM
Compound: Cc1ccc(NC2=CC(=O)c3sc(C)nc3C2=O)cc1

- Ki [3]: 153 nM
- IC50 [5]: 340 nM
- inhibition [6]: Active
- inhibition [9]: Active
- inhibition [10]: Active
- IC50 [15]: 420 nM
- Kd [17]: 64 nM
- inhibition [18]: Active
- Ki [20]: 26.1 µM
- IC50 [22]: 3.4 µM
- IC50 [24]: 160 nM
Compound: C#CCN(C)CCCNc1nc(NC2CCN(Cc3ccccc3)CC2)c2cc(OC)c(OC)cc2n1
- IC50 [4]: 1760 nM
- IC50 [7]: 1920 nM
- IC50 [8]: 4.56 µM
- viability at 72 h, 1.25 µM [11]: 96%
- Activity [12]: Active
- Activity [13]: Active
- Activity [14]: Active
- Activity [16]: Active
- Activity [19]: Dde
- Activity [21]: Active
- IC50 [23]: 1530 nM
- IC50 [25]: 1420 nM
- inhibition [26]: Active
- IC50 [27]: 1420 nM
